Tests used:
Format in all cases: biochemical
c-Met = c-Met (Homo sapiens, UniProt P08581); experiment: Ki determination for the inhibition of c-Met, coupled enzyme system; conditions: 200 μM ATP, 10 μM polyGluTyr, 80 nM c-Met, 30° C.
Method: Compounds were screened for their ability to inhibit c-Met kinase activity using a standard coupled enzyme system (Fox et al., Protein Sci. 1998, 7, 2249). Reactions were carried out in a solution containing 100 mM HEPES (pH 7.5), 10 mM MgCl2, 25 mM NaCl, 300 μM NADH, 1 mM DTT, and 1.5% DMSO. Final substrate concentrations in the assay were 200 μM ATP (Sigma Chemicals, St Louis, Mo.) and 10 μM polyGluTyr (Sigma Chemical Company, St. Louis). Reactions were carried out at 30° C. and 80 nM c-Met. Final concentrations of the components of the coupled enzyme system were 2.5 mM phosphoenolpyruvate, 300 μM NADH, 30 μg/ml pyruvate kinase and 10 μg/ml lactate dehydrogenase.
An assay stock buffer solution was prepared containing all of the reagents listed above with the exception of ATP and a test compound of the present invention. The assay stock buffer solution (175 μl) was incubated in a 96 well plate with 5 μl of the test compound of the present invention at final concentrations spanning 0.006 μM to 12.5 μM at 30° C. for 10 minutes. Typically, a 12-point titration was conducted by preparing serial dilutions (from 10 mM compound stocks) with DMSO of the test compounds of the present invention in daughter plates. The reaction was initiated by the addition of 20 μl of ATP (final concentration 200 μM). Rates of reaction were obtained using a Molecular Devices Spectramax plate reader (Sunnyvale, Calif.) over 10 minutes at 30° C. The Ki values were determined from the rate data as a function of inhibitor concentration.

GSK-3β, (AA 1-420) = GSK-3β, (AA 1-420) (Homo sapiens, UniProt P49841); experiment: GSK-3 inhibition assay, coupled enzyme system; conditions: 20 μM ATP, 300 μM peptide, 20 nM GSK-3b, 30° C.; read-out: Ki values (GSK3)
Method: Compounds of the present invention were screened for their ability to inhibit GSK-3β, (AA 1-420) activity using a standard coupled enzyme system (Fox et al., Protein Sci. 1998, 7, 2249). Reactions were carried out in a solution containing 100 mM HEPES (pH 7.5), 10 mM MgCl2, 25 mM NaCl, 300 μM NADH, 1 mM DTT and 1.5% DMSO. Final substrate concentrations in the assay were 20 μM ATP (Sigma Chemicals, St Louis, Mo.) and 300 μM peptide (American Peptide, Sunnyvale, Calif.). Reactions were carried out at 30° C. and 20 nM GSK-3b. Final concentrations of the components of the coupled enzyme system were 2.5 mM phosphoenolpyruvate, 300 μM NADH, 30 μg/ml pyruvate kinase and 10 μg/ml lactate dehydrogenase.
An assay stock buffer solution was prepared containing all of the reagents listed above with the exception of ATP and the test compound of the present invention. The assay stock buffer solution (175 μl) was incubated in a 96 well plate with 5 μl of the test compound of the present invention at final concentrations spanning 0.002 μM to 30 μM at 30° C. for 10 min. Typically, a 12 point titration was conducted by preparing serial dilutions (from 10 mM compound stocks) with DMSO of the test compounds of the present invention in daughter plates. The reaction was initiated by the addition of 20 μl of ATP (final concentration 20 μM). Rates of reaction were obtained using a Molecular Devices Spectramax plate reader (Sunnyvale, Calif.) over 10 min at 30° C. The Ki values were determined from the rate data as a function of inhibitor concentration.

SYK = SYK (Homo sapiens, UniProt P43405); experiment: SYK enzyme assay, coupled enzyme assay; conditions: 200 μM ATP, 4 μM poly Gly-Tyr peptide, 30° C.
Method: Compounds were screened for their ability to inhibit SYK using a standard coupled enzyme assay (Fox et al., Protein Sci. 1998, 7, 2249). Reactions were carried out in 100 mM HEPES (pH 7.5), 10 mM MgCl2, 25 mM NaCl, 1 mM DTT and 1.5% DMSO. Final substrate concentrations in the assay were 200 μM ATP (Sigma chemical Co.) and 4 μM poly Gly-Tyr peptide (Sigma Chemical Co.). Assays were carried out at 30° C. and 200 nM SYK. Final concentrations of the components of the coupled enzyme system were 2.5 mM phosphoenolpyruvate, 300 μM NADH, 30 μg/ml pyruvate kinase and 10 μg/ml lactate dehydrogenase.
An assay stock buffer solution was prepared containing all of the reagents listed above, with the exception of SYK, DTT, and the test compound of interest of the present invention. 56 μl of the test reaction was placed in a 96 well plate followed by the addition of 1 μl of 2 mM DMSO stock containing the test compound of the present invnetion (final compound concentration 30 μM). The plate was pre-incubated for ˜10 minutes at 30° C. and the reaction initiated by the addition of 10 μl of enzyme (final concentration 25 nM). Rates of reaction were obtained using a BioRad Ultramark plate reader (Hercules, Calif.) over a 5 minute read time at 30° C., and Ki values for the compounds of the present invention were determined according to standard methods.

JAK3 = molecular target: T1, JAK3 (Homo sapiens, UniProt P52333); experiment: JAK3 inhibition assay (ELISA, Poly (Glu, Ala, Tyr) coated plates); conditions: 2 mM ATP, 60 minutes at 30° C.
T1 sequence (P52333 1-1124): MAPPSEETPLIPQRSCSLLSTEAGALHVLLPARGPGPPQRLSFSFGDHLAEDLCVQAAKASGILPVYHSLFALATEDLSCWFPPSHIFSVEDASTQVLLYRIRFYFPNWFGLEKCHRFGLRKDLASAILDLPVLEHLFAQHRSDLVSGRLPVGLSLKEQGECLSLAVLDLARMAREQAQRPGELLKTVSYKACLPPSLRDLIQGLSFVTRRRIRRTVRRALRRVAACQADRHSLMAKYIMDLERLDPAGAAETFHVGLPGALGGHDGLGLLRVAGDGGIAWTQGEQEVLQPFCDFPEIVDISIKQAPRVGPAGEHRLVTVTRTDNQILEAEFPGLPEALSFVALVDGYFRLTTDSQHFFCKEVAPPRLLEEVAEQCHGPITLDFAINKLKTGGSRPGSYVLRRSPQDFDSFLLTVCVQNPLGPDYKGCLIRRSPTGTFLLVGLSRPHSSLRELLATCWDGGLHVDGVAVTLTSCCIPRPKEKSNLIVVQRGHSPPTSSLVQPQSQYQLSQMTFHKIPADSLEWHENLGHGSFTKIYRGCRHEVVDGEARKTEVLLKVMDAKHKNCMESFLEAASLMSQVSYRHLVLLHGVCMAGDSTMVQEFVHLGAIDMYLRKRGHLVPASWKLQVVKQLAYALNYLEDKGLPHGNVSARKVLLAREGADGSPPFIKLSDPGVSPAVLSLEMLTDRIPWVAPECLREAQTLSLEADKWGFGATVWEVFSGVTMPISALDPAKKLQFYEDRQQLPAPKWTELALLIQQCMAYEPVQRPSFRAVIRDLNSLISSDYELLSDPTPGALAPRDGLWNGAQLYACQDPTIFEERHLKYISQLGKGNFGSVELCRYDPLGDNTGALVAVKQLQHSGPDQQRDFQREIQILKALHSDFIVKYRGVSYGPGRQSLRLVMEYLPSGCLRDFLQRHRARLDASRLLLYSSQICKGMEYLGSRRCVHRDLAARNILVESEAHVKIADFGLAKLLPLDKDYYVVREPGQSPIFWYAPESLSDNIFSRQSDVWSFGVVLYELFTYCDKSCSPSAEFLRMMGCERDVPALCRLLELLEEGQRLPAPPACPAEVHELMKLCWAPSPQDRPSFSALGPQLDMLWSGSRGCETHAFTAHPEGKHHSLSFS
Method: Compound inhibition of JAK3 was assayed by the method described by G. R. Brown, et al., Bioorg. Med. Chem. Lett. 2000, vol. 10, pp 575-579 in the following manner. Into Maxisorb plates, previously coated at 4° C. with Poly (Glu, Ala, Tyr) 6:3:1 then washed with phosphate buffered saline 0.05% and Tween (PBST), was added 2 mM ATP, 5 mM MgCl2, and a solution of compound in DMSO. The reaction was started with JAK enzyme and the plates incubated for 60 minutes at 30° C. The plates were then washed with PBST, […] HRP-Conjugated 4G10 antibody was added, and the plate incubated for 90 minutes at 30° C. The plate was again washed with PBST, […] TMB solution is added, and the plates were incubated for another 30 minutes at 30° C. Sulfuric acid ([…] of 1M) was added to stop the reaction and the plate is read at 450 nm to obtain the optical densities for analysis to determine IC50 values.

c-KIT = molecular target: T2, c-KIT (Homo sapiens, UniProt P10721); experiment: Inhibition of c-KIT, radiometric filter-binding assay; conditions: 700 μM ATP, 0.5 mg/mL pE4Y, room temperature
T2 construct: 0.02% BSA and 25 nM c-KIT
Method: Compounds are screened for their ability to inhibit c-KIT activity using a radiometric filter-binding assay. This assay monitors the ^33P incorporation into a substrate poly(Glu, Tyr) 4:1 (pE4Y). Reactions are carried out in a solution containing 100 mM HEPES (pH 7.5), 10 mM MgCl2, 25 mM NaCl, 1 mM DTT, 0.01% BSA and 2.5% DMSO. Final substrate concentrations in the assay were 700 μM ATP and 0.5 mg/mL pE4Y (both from Sigma Chemicals, St Louis, Mo.). The final concentration of compounds is generally between 0.01 and 5 μM. Typically, a 12-point titration is conducted by preparing serial dilutions from 10 mM DMSO stock of test compound. Reactions were carried out at room temperature.
Two assay solutions are prepared. Solution 1 contains 100 mM HEPES (pH 7.5), 10 mM MgCl2, 25 mM NaCl, 1 mg/ml pE4Y and 1.4 mM ATP(containing 0.5 μCi of [γ-^33P]ATP for each reaction). Solution 2 contains 100 mM HEPES (pH 7.5), 10 mM MgCl2, 25 mM NaCl, 2 mM DTT, 0.02% BSA and 25 nM c-KIT. The assay is run on a 96 well plate by mixing 33 μL of Solution1 and 1.65 μL of the test compounds. The reaction is initiated with 33 μL of Solution2. After incubation for 20 minutes at room temperature, the reaction was stopped with 50 μL of 10% TCA containing 0.2 mM of ATP. All of the reaction volume is then transferred to a filter plate and washed with 5% TCA by a Harvester9600 from TOMTEC (Hamden, Conn.). The amount of ^33P incorporation into pE4y is analyzed by a Packard TopCount Microplate Scintillation Counter (Meriden, Conn.). The data is fitted using Prism software to get an IC50 or Ki.

T2 sequence (P10721 26-976): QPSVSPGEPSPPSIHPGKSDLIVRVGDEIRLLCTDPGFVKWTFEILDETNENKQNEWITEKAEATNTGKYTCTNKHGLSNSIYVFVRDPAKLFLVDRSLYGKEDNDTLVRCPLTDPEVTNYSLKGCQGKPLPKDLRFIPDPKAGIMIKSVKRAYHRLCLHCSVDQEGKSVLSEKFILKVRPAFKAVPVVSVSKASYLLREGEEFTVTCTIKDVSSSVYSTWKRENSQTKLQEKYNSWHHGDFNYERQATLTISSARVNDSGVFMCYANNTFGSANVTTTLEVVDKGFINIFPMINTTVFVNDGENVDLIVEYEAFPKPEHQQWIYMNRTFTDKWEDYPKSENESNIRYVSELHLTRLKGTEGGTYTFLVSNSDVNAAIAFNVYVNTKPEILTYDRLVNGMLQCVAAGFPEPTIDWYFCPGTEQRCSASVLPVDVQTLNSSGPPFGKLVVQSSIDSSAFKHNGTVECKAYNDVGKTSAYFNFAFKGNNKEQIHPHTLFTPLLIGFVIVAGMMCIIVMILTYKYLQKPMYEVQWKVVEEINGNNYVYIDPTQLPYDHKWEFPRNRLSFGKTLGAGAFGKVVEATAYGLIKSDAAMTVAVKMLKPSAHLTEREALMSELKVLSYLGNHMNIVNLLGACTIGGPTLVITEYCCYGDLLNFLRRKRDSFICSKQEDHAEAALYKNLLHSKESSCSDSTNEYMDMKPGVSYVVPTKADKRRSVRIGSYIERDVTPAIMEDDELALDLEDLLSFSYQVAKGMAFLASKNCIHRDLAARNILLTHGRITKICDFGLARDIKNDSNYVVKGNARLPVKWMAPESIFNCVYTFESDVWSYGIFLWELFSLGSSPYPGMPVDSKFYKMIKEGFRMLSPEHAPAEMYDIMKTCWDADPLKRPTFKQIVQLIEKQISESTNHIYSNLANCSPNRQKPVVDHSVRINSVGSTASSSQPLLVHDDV
c-Met, sequence (P08581 25-1390): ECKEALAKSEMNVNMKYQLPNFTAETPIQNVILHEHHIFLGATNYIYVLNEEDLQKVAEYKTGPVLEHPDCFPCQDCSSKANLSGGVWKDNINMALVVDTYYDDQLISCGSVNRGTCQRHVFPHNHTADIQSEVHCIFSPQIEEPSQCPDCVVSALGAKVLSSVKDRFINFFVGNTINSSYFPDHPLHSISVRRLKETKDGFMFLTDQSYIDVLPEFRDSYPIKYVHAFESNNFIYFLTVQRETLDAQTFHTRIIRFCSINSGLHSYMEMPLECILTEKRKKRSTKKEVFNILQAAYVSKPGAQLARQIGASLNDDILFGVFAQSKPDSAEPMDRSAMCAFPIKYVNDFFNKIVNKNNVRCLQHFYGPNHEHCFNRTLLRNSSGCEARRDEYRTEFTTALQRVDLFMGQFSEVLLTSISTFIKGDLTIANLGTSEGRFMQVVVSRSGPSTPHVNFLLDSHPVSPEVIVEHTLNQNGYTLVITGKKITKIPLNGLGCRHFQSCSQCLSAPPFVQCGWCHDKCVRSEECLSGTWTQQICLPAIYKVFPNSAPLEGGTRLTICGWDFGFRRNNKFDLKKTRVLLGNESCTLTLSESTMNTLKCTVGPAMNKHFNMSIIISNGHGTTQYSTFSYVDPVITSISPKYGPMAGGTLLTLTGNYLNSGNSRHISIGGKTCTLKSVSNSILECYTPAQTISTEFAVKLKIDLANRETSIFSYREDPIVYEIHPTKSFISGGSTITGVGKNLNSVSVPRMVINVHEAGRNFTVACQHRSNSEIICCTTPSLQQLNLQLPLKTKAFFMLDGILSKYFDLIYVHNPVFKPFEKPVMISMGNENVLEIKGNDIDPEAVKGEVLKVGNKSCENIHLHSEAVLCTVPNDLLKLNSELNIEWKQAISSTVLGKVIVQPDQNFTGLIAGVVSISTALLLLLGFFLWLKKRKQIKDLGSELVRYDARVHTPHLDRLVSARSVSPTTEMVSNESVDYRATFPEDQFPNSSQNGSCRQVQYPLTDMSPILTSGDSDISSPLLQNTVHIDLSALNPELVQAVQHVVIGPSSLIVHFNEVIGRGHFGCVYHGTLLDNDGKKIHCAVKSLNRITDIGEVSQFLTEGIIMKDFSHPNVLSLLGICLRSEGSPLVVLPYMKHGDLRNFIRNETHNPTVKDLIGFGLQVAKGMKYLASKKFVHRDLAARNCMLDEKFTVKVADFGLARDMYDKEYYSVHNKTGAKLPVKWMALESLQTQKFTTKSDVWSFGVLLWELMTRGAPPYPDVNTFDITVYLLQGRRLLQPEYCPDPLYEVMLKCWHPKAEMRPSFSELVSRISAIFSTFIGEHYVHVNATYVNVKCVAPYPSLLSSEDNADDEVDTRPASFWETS
GSK-3β, (AA 1-420), sequence (P49841 whole entry, the tested form may be a part): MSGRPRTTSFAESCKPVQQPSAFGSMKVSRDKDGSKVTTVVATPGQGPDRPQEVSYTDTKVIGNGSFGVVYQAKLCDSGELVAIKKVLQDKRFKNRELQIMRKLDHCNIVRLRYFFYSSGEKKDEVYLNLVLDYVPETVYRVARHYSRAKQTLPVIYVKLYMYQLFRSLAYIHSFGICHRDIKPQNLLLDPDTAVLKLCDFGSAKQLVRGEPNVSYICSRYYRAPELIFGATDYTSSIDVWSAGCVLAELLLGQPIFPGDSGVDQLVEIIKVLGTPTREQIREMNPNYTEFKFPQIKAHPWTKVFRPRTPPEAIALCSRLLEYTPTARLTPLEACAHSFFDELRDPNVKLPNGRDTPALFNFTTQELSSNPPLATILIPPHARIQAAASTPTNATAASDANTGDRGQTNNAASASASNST

Ki (c-Met) | Ki (GSK-3β, (AA 1-420)) | Ki (SYK) | Ki (JAK3) | Ki (c-KIT) | Compound
1 to 12.5 µM | 1 to 12.5 µM | 1 to 12.5 µM |  |  | Fc1cccc(-c2cnoc2-c2c[nH]c3ccccc23)c1F [Compound 29, 3-[4-(2,3-Difluoro-phenyl)-isoxazol-5-yl]-1H-indole]
< 0.2 µM |  |  | 0.2 to 1 µM | < 0.2 µM | CN1CCN(c2ccc(-c3cnc4[nH]cc(-c5nncn5-c5cccc(F)c5F)c4c3)cc2N)CC1 [Compound 129, 5-{3-[4-(2,3-Difluoro-phenyl)-4H-[1,2,4]triazol-3-yl]-1H-pyrrolo[2,3-b]pyridin-5-yl}-2-(4-methyl-piperazin-1-yl)-phenylamine]
< 0.2 µM |  |  | 0.2 to 1 µM | < 0.2 µM | CN(C)c1ccc(-c2cnc3[nH]cc(-c4nncn4-c4cccc(F)c4F)c3c2)cc1N [Compound 130, 4-{3-[4-(2,3-Difluoro-phenyl)-4H-[1,2,4]triazol-3-yl]-1H-pyrrolo[2,3-b]pyridin-5-yl}-N^1,N^1-dimethyl-benzene-1,2-diamine]
< 0.2 µM |  |  | 1 to 12.5 µM | < 0.2 µM | CN(C)c1ccc(-c2cnc3[nH]cc(-c4nncn4-c4cccc(F)c4F)c3c2)cc1[N+](=O)[O-] [Compound 131, (4-{3-[4-(2,3-Difluoro-phenyl)-4H-[1,2,4]triazol-3-yl]-1H-pyrrolo[2,3-b]pyridin-5-yl}-2-nitro-phenyl)-dimethyl-amine]

Reference: patent US7446199B2, “Compositions useful as inhibitors of protein kinases” (Vertex Pharmaceuticals Incorporated, priority 2003, dated 2008)
